These results are taken from paper PMC4392994, “Kinetic Characterization and Effect of Immobilized Thermostable β-Glucosidase in Alginate Gel Beads on Sugarcane Juice” (ISRN Biochemistry, 2014).

Each structure is given as a SMILES string.

The test deals with T1, β-glucosidase.
T1 construct: recombinant, cloned and expressed in E. coli DH5alpha; extracellular, from culture supernatant; partially purified (ammonium sulfate, dialysis); EC 3.2.1.21
Kind of test: p-nitrophenol release at […] nm, Lineweaver-Burk plot. The format is biochemical, Bacillus subtilis. Conditions: free enzyme, partially purified; acetate buffer 100 mM, pH 5.0, 60 °C, 30 min; 1–15 mM substrate.

As to `O=[N+]([O-])c1ccc(O[C@@H]2O[C@H](CO)[C@@H](O)[C@H](O)[C@H]2O)cc1` [pNPG], the Km amounted to 3.6 mM.

The term Km denotes the concentration of substrate that gives half-maximal velocity.
